The structures appear in SMILES notation. pKd: −log10 of the molar value.

Test [1] concerns the target Isoform A1-A of Heterogeneous nuclear ribonucleoprotein A1 (A1-A) (Homo sapiens, UniProt P09651). The experiment in a line: Surface Plasmon Resonance (SPR) Assay. Particulars: pH 4. The text has this:
(§1) Recombinant full-length hnRNPA1 (aa 1-320) and truncated versions of hnRNPA1, including the N-terminal RNA binding domain (aa 1-196), the middle region (aa 182-268), and the C-terminal region (aa 268-320), were individually covalently coupled to a dextran matrix (CM5 chip) using a Biacore T200 system (GE Healthcare), following the manufacturer's protocols. Immobilized proteins were activated with N-hydroxysuccinimide and 1-ethyl-3-(3-dimethylaminopropyl) carbodiimide to form a […] between carboxyl moieties on the dextran and […] on the protein. hnRNPA1 variants were dissolved in 10 mM acetate buffer (full-length, pH 4; N-terminal RNA binding domain and the C-terminal region, pH 4.5; middle region, pH 5) to a concentration of 20 μg/ml and flowed over the activated surface for 5 min with PBS. Unreacted groups were blocked with ethanolamine. PBS containing 0.05% (v/v) P20 (surfactant) and 5% DMSO was used for priming and conditioning the surface of the chips. Quercetin was serially diluted (from 200 to 3 μM) in PBS buffer and maintained in DMSO (5% (v/v)) (final concentrations from 10 to 0.15 μM). The baseline response was determined for 120 s (30 μl/min) before perfusing the immobilized proteins with the compounds to allow association to occur. Dissociation was then monitored over a period of an additional 120 s. […]

Test [2] concerns the target Isoform A1-A of Heterogeneous nuclear ribonucleoprotein A1 (A1-A) 68-320] (Homo sapiens, UniProt P09651). Nature of the test: Surface Plasmon Resonance (SPR) Assay. The note with it: pH 4.
Source text: as §1

Isoform A1-A of Heterogeneous nuclear ribonucleoprotein A1 (A1-A), sequence (P09651 as listed by the source): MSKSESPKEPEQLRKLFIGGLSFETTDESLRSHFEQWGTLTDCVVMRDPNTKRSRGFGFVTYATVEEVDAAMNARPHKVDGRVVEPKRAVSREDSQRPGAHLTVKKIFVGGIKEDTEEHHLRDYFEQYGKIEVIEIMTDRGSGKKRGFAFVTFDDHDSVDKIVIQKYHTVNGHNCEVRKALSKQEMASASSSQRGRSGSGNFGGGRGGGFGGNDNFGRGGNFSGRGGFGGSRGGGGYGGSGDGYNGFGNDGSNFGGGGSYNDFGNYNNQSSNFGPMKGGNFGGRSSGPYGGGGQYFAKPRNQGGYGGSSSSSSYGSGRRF
Isoform A1-A of Heterogeneous nuclear ribonucleoprotein A1 (A1-A) 68-320], sequence (P09651 320-372): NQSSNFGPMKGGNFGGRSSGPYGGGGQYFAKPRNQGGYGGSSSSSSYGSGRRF

As for `O=c1c(O)c(-c2ccc(O)c(O)c2)oc2cc(O)cc(O)c12` [2-(3,4-dihydroxyphenyl)-3,5,7-trihydroxy-chromone;hydrate], the results for the pKd in test [1] and in test [2] were 5.05 and 5.77, respectively.

The record behind these values is BindingDB's records for doi:10.1074/jbc.M114.553248 (National Taiwan University, 2014).
